Results as given in patent US20250304596A1, “PYRAZINE DERIVATIVES AND USES THEREOF” (FOGHORN THERAPEUTICS INC., priority 2022, published 2025).

Legend:
[1] = target: T1, HiBit-BRG1 fusion protein (Homo sapiens, UniProt P51532); experiment: HiBiT-BRG1 cell-based degradation assay (Nano-Glo HiBiT Lytic Detection, 24 h); details: stable HeLa cell line expressing HiBit-BRG1 and LgBit; for Dmax: read-out: BRG1 HiBit Degradation Maximum (%); for DC50: read-out: BRMG1 HiBit Degradation IC50
T1 construct: expressed in transfected cells
Summary of the method: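 Degradation read by lytic NanoBiT luminescence after 24 h compound exposure of a stable HiBit-BRG1/LgBit HeLa line. Ten-point, 3-fold series in duplicate, top final dose 30 μM; DMSO and 2 μM standard degrader define 0% and 100% degradation.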

HiBit-BRM fusion protein = target: T2, HiBit-BRM fusion protein (Homo sapiens, UniProt P51531); experiment: HiBiT-BRM cell-based degradation assay (Nano-Glo HiBiT Lytic Detection, 24 h); details: stable HeLa cell line expressing HiBiT-BRM; for DC50: read-out: BRM HiBit Degradation IC50
T2 construct: expressed in transfected cells
Summary of the method: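 Luminescence from LgBiT complementation after lysis measured HiBiT-BRM levels in stably expressing HeLa cells. Compounds were dosed at up to 30 μM final, in 3-fold 10-point dilutions, for 24 h. Percent degradation was scaled between DMSO wells and wells treated with 2 μM standard BRM/BRG1 degrader.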

T2 sequence (P51531 whole entry, the tested form may be a part): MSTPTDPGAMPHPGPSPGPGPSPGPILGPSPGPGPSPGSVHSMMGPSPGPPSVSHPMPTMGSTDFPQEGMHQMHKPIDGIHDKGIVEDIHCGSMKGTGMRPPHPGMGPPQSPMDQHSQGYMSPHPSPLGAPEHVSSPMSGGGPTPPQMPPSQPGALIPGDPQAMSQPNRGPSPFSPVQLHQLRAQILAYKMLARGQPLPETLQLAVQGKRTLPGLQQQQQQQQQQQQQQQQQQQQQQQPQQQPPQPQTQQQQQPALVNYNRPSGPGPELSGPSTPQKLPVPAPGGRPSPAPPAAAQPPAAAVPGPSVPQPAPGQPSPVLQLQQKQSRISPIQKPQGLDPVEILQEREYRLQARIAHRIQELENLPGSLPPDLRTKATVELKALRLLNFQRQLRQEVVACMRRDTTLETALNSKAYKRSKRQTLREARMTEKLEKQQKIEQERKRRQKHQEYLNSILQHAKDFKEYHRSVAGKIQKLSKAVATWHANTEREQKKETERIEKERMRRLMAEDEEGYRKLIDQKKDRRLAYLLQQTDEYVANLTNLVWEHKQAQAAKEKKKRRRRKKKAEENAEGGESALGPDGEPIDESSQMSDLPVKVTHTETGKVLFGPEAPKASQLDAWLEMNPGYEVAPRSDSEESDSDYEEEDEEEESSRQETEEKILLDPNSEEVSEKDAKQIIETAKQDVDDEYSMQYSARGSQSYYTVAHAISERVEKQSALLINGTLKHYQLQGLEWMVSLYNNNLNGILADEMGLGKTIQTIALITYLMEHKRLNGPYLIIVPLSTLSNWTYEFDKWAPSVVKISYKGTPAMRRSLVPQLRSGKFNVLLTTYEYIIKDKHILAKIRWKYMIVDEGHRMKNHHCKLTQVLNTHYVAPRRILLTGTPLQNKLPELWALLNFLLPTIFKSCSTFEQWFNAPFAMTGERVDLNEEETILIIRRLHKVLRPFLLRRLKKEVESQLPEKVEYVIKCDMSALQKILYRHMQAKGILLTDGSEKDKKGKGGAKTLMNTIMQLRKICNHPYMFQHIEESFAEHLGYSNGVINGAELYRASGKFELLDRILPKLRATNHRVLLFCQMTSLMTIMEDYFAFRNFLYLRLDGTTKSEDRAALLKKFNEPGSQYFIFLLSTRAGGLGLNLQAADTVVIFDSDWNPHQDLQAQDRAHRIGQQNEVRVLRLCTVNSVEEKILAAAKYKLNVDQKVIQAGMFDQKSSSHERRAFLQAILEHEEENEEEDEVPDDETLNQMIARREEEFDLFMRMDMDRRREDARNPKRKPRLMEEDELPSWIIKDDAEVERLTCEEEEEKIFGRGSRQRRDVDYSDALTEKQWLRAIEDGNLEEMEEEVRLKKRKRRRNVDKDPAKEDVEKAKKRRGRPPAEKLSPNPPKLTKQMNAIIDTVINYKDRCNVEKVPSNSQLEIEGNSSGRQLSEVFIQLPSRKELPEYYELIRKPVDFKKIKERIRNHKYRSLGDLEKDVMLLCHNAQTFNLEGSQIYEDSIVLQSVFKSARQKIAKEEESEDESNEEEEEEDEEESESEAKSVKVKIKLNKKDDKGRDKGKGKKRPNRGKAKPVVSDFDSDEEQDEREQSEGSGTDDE
T1 sequence (P51532 whole entry, the tested form may be a part): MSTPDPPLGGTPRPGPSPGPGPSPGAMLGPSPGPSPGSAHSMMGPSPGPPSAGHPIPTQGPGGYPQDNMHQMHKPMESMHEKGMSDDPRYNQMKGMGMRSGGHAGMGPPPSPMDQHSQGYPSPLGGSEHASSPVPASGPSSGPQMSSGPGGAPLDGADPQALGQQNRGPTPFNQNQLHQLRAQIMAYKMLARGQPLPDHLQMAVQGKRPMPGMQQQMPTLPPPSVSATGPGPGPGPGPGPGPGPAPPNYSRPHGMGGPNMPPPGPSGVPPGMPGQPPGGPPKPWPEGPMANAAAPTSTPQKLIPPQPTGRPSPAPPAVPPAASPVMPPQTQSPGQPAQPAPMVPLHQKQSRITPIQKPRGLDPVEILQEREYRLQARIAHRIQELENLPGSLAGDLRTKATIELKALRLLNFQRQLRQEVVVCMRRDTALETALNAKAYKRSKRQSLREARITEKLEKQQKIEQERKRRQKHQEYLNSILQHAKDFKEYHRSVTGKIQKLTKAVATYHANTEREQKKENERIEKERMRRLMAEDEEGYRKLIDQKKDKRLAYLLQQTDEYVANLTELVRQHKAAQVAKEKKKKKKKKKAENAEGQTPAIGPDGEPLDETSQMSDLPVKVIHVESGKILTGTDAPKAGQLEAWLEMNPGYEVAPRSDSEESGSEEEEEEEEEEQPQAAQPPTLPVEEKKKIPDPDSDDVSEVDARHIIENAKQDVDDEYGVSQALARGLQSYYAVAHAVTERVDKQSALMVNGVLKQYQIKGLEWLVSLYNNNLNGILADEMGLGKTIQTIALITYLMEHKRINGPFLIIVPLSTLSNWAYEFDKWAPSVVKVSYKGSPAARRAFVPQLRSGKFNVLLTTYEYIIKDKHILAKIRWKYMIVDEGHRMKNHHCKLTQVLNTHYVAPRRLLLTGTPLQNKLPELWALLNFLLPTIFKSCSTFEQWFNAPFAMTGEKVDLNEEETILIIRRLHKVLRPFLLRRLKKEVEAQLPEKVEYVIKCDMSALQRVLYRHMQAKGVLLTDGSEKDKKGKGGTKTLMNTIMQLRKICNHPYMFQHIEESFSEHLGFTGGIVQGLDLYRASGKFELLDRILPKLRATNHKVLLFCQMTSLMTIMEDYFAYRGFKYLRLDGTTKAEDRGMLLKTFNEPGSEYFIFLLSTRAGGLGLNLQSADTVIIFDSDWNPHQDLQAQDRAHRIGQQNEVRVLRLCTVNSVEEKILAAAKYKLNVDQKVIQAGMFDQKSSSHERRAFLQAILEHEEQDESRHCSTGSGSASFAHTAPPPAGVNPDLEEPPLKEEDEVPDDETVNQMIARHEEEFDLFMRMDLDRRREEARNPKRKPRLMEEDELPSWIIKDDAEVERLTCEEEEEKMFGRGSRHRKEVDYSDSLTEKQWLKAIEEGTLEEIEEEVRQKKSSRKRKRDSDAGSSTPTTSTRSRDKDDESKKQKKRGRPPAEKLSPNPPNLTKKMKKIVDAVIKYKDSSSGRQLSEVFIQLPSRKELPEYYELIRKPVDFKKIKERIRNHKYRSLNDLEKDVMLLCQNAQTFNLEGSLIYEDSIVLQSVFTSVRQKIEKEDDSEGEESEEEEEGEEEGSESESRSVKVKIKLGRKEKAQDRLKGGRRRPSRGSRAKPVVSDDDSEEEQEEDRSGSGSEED

SMILES: Cc1ncsc1-c1ccc([C@H](C)NC(=O)[C@@H]2C[C@@H](O)CN2C(=O)[C@@H](c2cc(N3CC4(C3)CN(c3cc5cc(-c6ccccc6O)nnc5s3)C4)no2)C(C)C)cc1 [Compound 68, (2S,4R)-4-hydroxy-1-((R)-2-(3-(6-(3-(2-hydroxyphenyl)thieno[2,3-c]pyridazin-6-yl)-2,6-diazaspiro[3.3]heptan-2-yl)isoxazol-5-yl)-3-methylbutanoyl)-N-((S)-1-(4-(4-methylthiazol-5-yl)phenyl)ethyl)pyrrolidine-2-carboxamide]
- Dmax [1]: < 50%
- BRM HiBit Degradation Maximum (%) (HiBit-BRM fusion protein): A (“A” indicates maximum degradation ≥75%)
- DC50 (HiBit-BRM fusion protein): < 0.01 µM

SMILES: Cc1ncsc1-c1ccc([C@H](C)NC(=O)[C@@H]2C[C@@H](O)CN2C(=O)[C@@H](c2cc(-c3cnc(NC45CC(c6sc7nnc(-c8ccccc8O)cc7c6C)(C4)C5)nc3)no2)C(C)C)cc1 [Compound 44, (2S,4R)-4-hydroxy-1-((R)-2-(3-(2-((3-(3-(2-hydroxyphenyl)-5-methylthieno[2,3-c]pyridazin-6-yl)bicyclo[1.1.1]pentan-1-yl)amino)pyrimidin-5-yl)isoxazol-5-yl)-3-methylbutanoyl)-N-((S)-1-(4-(4-methylthiazol-5-yl)phenyl)ethyl)pyrrolidine-2-carboxamide]
- Dmax [1]: > 75%
- BRM HiBit Degradation Maximum (%) (HiBit-BRM fusion protein): A (“A” indicates maximum degradation ≥75%)
- DC50 (HiBit-BRM fusion protein): < 0.01 µM

SMILES: Cc1ncsc1-c1ccc([C@H](C)NC(=O)[C@@H]2C[C@@H](O)CN2C(=O)[C@@H](c2cc(C3CCN(c4cnc(N5CCC(c6sc7nnc(-c8ccccc8O)cc7c6C)CC5)nc4)CC3)no2)C(C)C)cc1 [Compound 100, (2S,4R)-4-hydroxy-1-[(2R)-2-{3-[1-(2-{4-[3-(2-hydroxyphenyl)-5-methylthieno[2,3-c]pyridazin-6-yl]piperidin-1-yl}pyrimidin-5-yl)piperidin-4-yl]-1,2-oxazol-5-yl}-3-methylbutanoyl]-N-[(1S)-1-[4-(4-methyl-1,3-thiazol-5-yl)phenyl]ethyl]pyrrolidine-2-carboxamide]
- Dmax [1]: > 50%
- DC50 [1]: > 0.01 µM
- BRM HiBit Degradation Maximum (%) (HiBit-BRM fusion protein): A (“A” indicates maximum degradation ≥75%)
- DC50 (HiBit-BRM fusion protein): < 0.01 µM

SMILES: Cc1ncsc1-c1ccc([C@H](C)NC(=O)[C@@H]2C[C@@H](O)CN2C(=O)[C@@H](c2cc(-c3cnc(N4C[C@@H]5[C@H](C4)[C@H]5c4sc5nnc(-c6ccccc6O)cc5c4C)nc3)no2)C(C)C)cc1 (stereo in doubt) [Compound 40, (2S,4R)-4-hydroxy-1-((R)-2-(3-(2-((1R,5R)-6-(3-(2-hydroxyphenyl)-5-methylthieno[2,3-c]pyridazin-6-yl)-3-azabicyclo[3.1.0]hexan-3-yl)pyrimidin-5-yl)isoxazol-5-yl)-3-methylbutanoyl)-N-((S)-1-(4-(4-methylthiazol-5-yl)phenyl)ethyl)pyrrolidine-2-carboxamide]
- Dmax [1]: < 50%
- DC50 [1]: > 0.1 µM
- BRM HiBit Degradation Maximum (%) (HiBit-BRM fusion protein): A (“A” indicates maximum degradation ≥75%)
- DC50 (HiBit-BRM fusion protein): < 0.01 µM

SMILES: Cc1ncsc1-c1ccc([C@H](C)NC(=O)[C@@H]2C[C@@H](O)CN2C(=O)[C@@H](c2cc(-c3cnc(N4CCC(c5sc6nnc(-c7ccccc7O)cc6c5C)[C@@H](C)C4)nc3)no2)C(C)C)cc1 (stereo in doubt) [Compound 35, (2S,4R)-4-hydroxy-1-((R)-2-(3-(2-((3R,4R)-4-(3-(2-hydroxyphenyl)-5-methylthieno[2,3-c]pyridazin-6-yl)-3-methylpiperidin-1-yl)pyrimidin-5-yl)isoxazol-5-yl)-3-methylbutanoyl)-N-((S)-1-(4-(4-methylthiazol-5-yl)phenyl)ethyl)pyrrolidine-2-carboxamide]
- Dmax [1]: < 50%
- DC50 [1]: > 1 µM
- BRM HiBit Degradation Maximum (%) (HiBit-BRM fusion protein): A (“A” indicates maximum degradation ≥75%)
- DC50 (HiBit-BRM fusion protein): < 0.01 µM

SMILES: Cc1nc(N2CC[C@@H](c3sc4nnc(-c5ccccc5O)cc4c3C)C2)ccc1-c1cc([C@H](C(=O)N2C[C@H](O)C[C@H]2C(=O)N[C@@H](C)c2ccc(-c3scnc3C)cc2)C(C)C)on1 [Compound 94, (2S,4R)-4-hydroxy-1-((R)-2-(3-(6-((R)-3-(3-(2-hydroxyphenyl)-5-methylthieno[2,3-c]pyridazin-6-yl)pyrrolidin-1-yl)-2-methylpyridin-3-yl)isoxazol-5-yl)-3-methylbutanoyl)-N-((S)-1-(4-(4-methylthiazol-5-yl)phenyl)ethyl)pyrrolidine-2-carboxamide]
- Dmax [1]: < 50%
- BRM HiBit Degradation Maximum (%) (HiBit-BRM fusion protein): A (“A” indicates maximum degradation ≥75%)
- DC50 (HiBit-BRM fusion protein): > 0.01 µM

SMILES: Cc1ncsc1-c1ccc([C@H](C)NC(=O)[C@@H]2C[C@@H](O)CN2C(=O)[C@@H](c2cc(-c3ccc(N4CC(c5sc6nnc(-c7ccccc7O)cc6c5C)C4)nc3)no2)C(C)C)cc1 [Compound 49, (2S,4R)-4-hydroxy-1-((R)-2-(3-(6-(3-(3-(2-hydroxyphenyl)-5-methylthieno[2,3-c]pyridazin-6-yl)azetidin-1-yl)pyridin-3-yl)isoxazol-5-yl)-3-methylbutanoyl)-N-((S)-1-(4-(4-methylthiazol-5-yl)phenyl)ethyl)pyrrolidine-2-carboxamide]
- Dmax [1]: < 50%
- DC50 [1]: > 1 µM
- BRM HiBit Degradation Maximum (%) (HiBit-BRM fusion protein): B (“B” indicates maximum degradation ≥50%)
- DC50 (HiBit-BRM fusion protein): > 0.01 µM

SMILES: Cc1ncsc1-c1ccc([C@H](C)NC(=O)[C@@H]2C[C@@H](O)CN2C(=O)[C@@H](c2cc(Oc3ccnc(N4CCC(c5sc6nnc(-c7ccccc7O)cc6c5C)CC4)n3)no2)C(C)C)cc1 (single isomer, unassigned) [Compound 62]
- Dmax [1]: < 50%
- DC50 [1]: > 1 µM
- BRM HiBit Degradation Maximum (%) (HiBit-BRM fusion protein): C (“C” indicates maximum degradation <50%)
- DC50 (HiBit-BRM fusion protein): > 1 µM
